Experimental data published in patent US7235262B2, “Use of bioactive fraction from cow urine distillate (‘Go-mutra’) as a bio-enhancer of anti-infective, anti-cancer agents and nutrients” (Council of Scientific and Industrial Research, priority 2000, dated 2007).
In brackets after ≈: the same amount, converted by molar mass. Where two headings read alike, the source gives them in different places.

Assays:
Escherichia coli = assay: Broth assay for bio-enhancement of antibiotic killing, Gram-negative bacterium; details: cow urine distillate 1 μl/mL
Method: (§1) For this, the cells are treated with compound for 4 to 8 hours and then washed free of it by centrifugation and washing in sterile water. This was followed by treatment with antibiotic as in steps b to d.
(§2) In the next step of elucidation of the enhancer action, the applicants experimented with the killing activities of different antibiotics against the bacteria singly and in combination with the test component (cow urine distillate) following the method described above. […] In all the experiments the cow urine distillate concentration was kept at 1 μl/mL unless it is specifically mentioned.

Bacillus subtilis = assay: Broth assay for bio-enhancement of antibiotic killing, Gram-positive bacterium; details: cow urine distillate 1 μl/mL
Method: as §1, §2

Mycobacterium smegmatis = assay: Broth assay for bio-enhancement of antibiotic killing, Mycobacterium smegmatis; details: antibiotic 0.5 μg/ml; cow urine distillate 1 μl/mL
Method: as §1, §2

fungal strains [1] = details: active fraction Gm-IV, where present, at 10 μg/ml
Method: (§3) The methodology followed by us for this screening included specifically designed bioassays as described below.
as §1
(§4) The Concentration of the Active Fraction is Kept at 10 μg/ml.

fungal strains [2] = assay: organism not typed; details: read-out: Minimum inhibitory Concentration (MIC)
Method: as §3, §1, §4

[3] = system: oxyR mutant of bacterium Escherichia coli; type: cell-based
[4] = Bioavailability test through biological membrane (U-tube); type: in vitro ADME, goat; details: Rifampicin 1 mg/ml, Fraction Gm-IV (where present) 1.0 μg/ml
[5] = system: MCF-7 (Breast cancer cell line); type: cell-based; details: for Final titre of viable cells upon treatment with taxol alone / Final titre of viable cells upon treatment with taxol + cow urine distillate: MCF-7, count after 36 hours; for Final titre of viable cells upon treatment with taxol + cow urine distillate: cow urine distillate 1 μl/ml

CC1(C)S[C@@H]2[C@H](NC(=O)[C@H](N)c3ccccc3)C(=O)N2[C@H]1C(=O)O [Ampicillin]
Fold enhancement in antibiotic activity (Escherichia coli; antibiotic 4 μg/ml): 1.85 | Fold enhancement in antibiotic activity (Escherichia coli; antibiotic 6 μg/ml): 4.50 | Fold enhancement in antibiotic activity (Escherichia coli; antibiotic 8 μg/ml): 5.00 | Fold enhancement in antibiotic activity (Bacillus subtilis; antibiotic 0.1 μg/ml): 3.3 | Fold enhancement in antibiotic activity (Bacillus subtilis; antibiotic 0.5 μg/ml): 3.0 | Fold enhancement in antibiotic activity (Mycobacterium smegmatis): 11.6

Clc1ccccc1C(c1ccccc1)(c1ccccc1)n1ccnc1 [Clotrimazol]
Fold enhancement (fungal strains [1]): 0.0 | MIC (fungal strains [2]): 4.4 µg/mL (≈ 12.8 µM)

NNC(=O)c1ccncc1 [Isoniazid]
enhancement action of the distillate for INH [3]: enhancement action

CO[C@H]1/C=C/O[C@@]2(C)Oc3c(C)c(O)c4c(O)c(c(/C=N/N5CCN(C)CC5)c(O)c4c3C2=O)NC(=O)/C(C)=C\C=C\[C@H](C)[C@H](O)[C@@H](C)[C@@H](O)[C@@H](C)[C@H](OC(C)=O)[C@@H]1C [Rifampicin]
OD measured as Absorbance across the membrane in receiving tube ([4]; A340, after 1 hr): 0.0097 | OD measured as Absorbance across the membrane in receiving tube ([4]; A340, after 2 hr): 0.0214 | OD measured as Absorbance across the membrane in receiving tube ([4]; A340, after 4 hr): 0.0771 | OD measured as Absorbance across the membrane in receiving tube ([4]; A340, after 5 hr): 0.0858 | OD measured as Absorbance across the membrane in receiving tube ([4]; A340, after 6 hr): 0.0910 | OD measured as Absorbance across the membrane in receiving tube ([4]; A475, after 1 hr): 0.0177 | OD measured as Absorbance across the membrane in receiving tube ([4]; A475, after 2 hr): 0.0284 | OD measured as Absorbance across the membrane in receiving tube ([4]; A475, after 3 hr): 0.0309 | OD measured as Absorbance across the membrane in receiving tube ([4]; A475, after 4 hr): 0.0412 | OD measured as Absorbance across the membrane in receiving tube ([4]; A475, after 5 hr): 0.0484 | OD measured as Absorbance across the membrane in receiving tube ([4]; A475, after 6 hr): 0.0496

CC(=O)O[C@H]1C(=O)[C@@]2(C)[C@H]([C@H](OC(=O)c3ccccc3)[C@]3(O)C[C@H](OC(=O)[C@H](O)[C@@H](NC(=O)c4ccccc4)c4ccccc4)C(C)=C1C3(C)C)[C@]1(OC(C)=O)CO[C@@H]1C[C@@H]2O [Taxol, Paclitaxel]
Final titre of viable cells upon treatment with taxol alone ([5]; Taxol 0.001 μg/ml): 0.059 × 10^6 | Final titre of viable cells upon treatment with taxol + cow urine distillate ([5]; Taxol 0.001 μg/ml): 0.039 × 10^6 | Final titre of viable cells upon treatment with taxol alone ([5]; Taxol 0.005 μg/ml): 0.042 × 10^6 | Final titre of viable cells upon treatment with taxol + cow urine distillate ([5]; Taxol 0.005 μg/ml): 0.032 × 10^6 | Final titre of viable cells upon treatment with taxol alone ([5]; Taxol 0.01 μg/ml): 0.036 × 10^6 | Final titre of viable cells upon treatment with taxol + cow urine distillate ([5]; Taxol 0.01 μg/ml): 0.012 × 10^6 | killing action of Taxol with cow urine distillate ([5]; cancerous cell line MCF-7): increased | enhancement in the activity of taxol by the distillate ([5]; distillate at 1 μl/ml): at least 5 folds
